Laboratory results reported in patent US7763602B2, “Pyrrole derivatives as antimycobacterial compounds” (priority 2002, dated 2010).
≈ marks a conversion by molar mass, not a printed value.

System: M. tuberculosis clinical isolates, resistant
Assay: microbe, parasite or virus in culture
Format: cell-based, Mycobacterium tuberculosis
Settings: Mycobacterium tuberculosis, read-out: MIC (μg/ml) against Clinical isolates Resistant

Row | Structure (SMILES) | MIC [µg/mL]
1 | Cc1c(CN2CCN(c3ccc(F)cc3)CC2)cc(-c2ccc(Cl)cc2)n1-c1ccc(F)cc1F [compound 44, 1-{[1-(2,4-difluorophenyl)-5-(4-chlorophenyl)-2-methylpyrrol-3-yl]methyl}-4-(4-fluorophenyl)piperazine] | 2 to 4 (≈ 4.03 to 8.06 µM)
2 | Cc1c(CN2CCN(c3cccc(C(F)(F)F)c3)CC2)cc(-c2ccc(Cl)cc2)n1-c1ccc(F)cc1F [compound 46, 1-{[1-(2,4-difluorophenyl)-5-(4-chlorophenyl)-2-methylpyrrol-3-yl]methyl}-4-(3-trifluoromethylphenyl)piperazine] | 4 to 16 (≈ 7.33 to 29.3 µM)
3 | Cc1c(CN2CCN(c3ccccn3)CC2)cc(-c2ccc(Cl)cc2)n1-c1ccc(F)cc1F [compound 47, 1-{[1-(2,4-difluorophenyl)-5-(4-chlorophenyl)-2-methylpyrrol-3-yl]methyl}-4-(2-pyridyl)piperazine] | 1 to 4 (≈ 2.09 to 8.35 µM)
4 | Cc1c(CN2CCN(c3ccc(F)cc3)CC2)cc(-c2ccccc2)n1-c1ccc(F)cc1F [compound 51, 1-{[1-(2,4-difluorophenyl)-2-methyl-5-phenylpyrrol-3-yl]methyl}-4-(4-fluorophenyl)piperazine] | > 16
5 | COc1ccccc1N1CCN(Cc2cc(-c3ccccc3)n(-c3ccc(F)cc3F)c2C)CC1 [compound 52, 1-{[1-(2,4-difluorophenyl)-2-methyl-5-phenylpyrrol-3-yl]methyl}-4-(2-methoxyphenyl)piperazine] | 8 to 16 (≈ 16.9 to 33.8 µM)
6 | Cc1c(CN2CCN(c3cccc(C(F)(F)F)c3)CC2)cc(-c2ccccc2)n1-c1ccc(F)cc1F [compound 53, 1-{[1-(2,4-difluorophenyl)-2-methyl-5-phenylpyrrol-3-yl]methyl}-4-(3-trifluoromethylphenyl)piperazine] | > 16
7 | Cc1c(CN2CCN(c3ccccn3)CC2)cc(-c2ccccc2)n1-c1ccc(F)cc1F [compound 54, 1-{[1-(2,4-difluorophenyl)-2-methyl-5-phenylpyrrol-3-yl]methyl}-4-(2-pyridyl) piperazine] | 4 (≈ 9 µM)
8 | Cc1cc(CN2CCN(c3ccc(F)cc3)CC2)c(-c2ccccc2)n1-c1ccc(F)cc1F [compound 55, 1-{[1-(2,4-difluorophenyl)-5-methyl-2-phenylpyrrol-3-yl]methyl}-4-(4-fluorophenyl) piperazine] | > 16
9 | COc1ccccc1N1CCN(Cc2cc(C)n(-c3ccc(F)cc3F)c2-c2ccccc2)CC1 [compound 56, 1-{[1-(2,4-difluorophenyl)-5-methyl-2-phenylpyrrol-3-yl]methyl}-4-(2-methoxyphenyl) piperazine] | 8 to 16 (≈ 16.9 to 33.8 µM)
10 | Cc1cc(CN2CCN(c3cccc(C(F)(F)F)c3)CC2)c(-c2ccccc2)n1-c1ccc(F)cc1F [compound 57, 1-{[1-(2,4-difluorophenyl)-5-methyl-2-phenylpyrrol-3-yl]methyl}-4-(3-trifluoromethylphenyl)piperazine] | > 16
11 | Cc1cc(CN2CCN(c3ccccn3)CC2)c(-c2ccccc2)n1-c1ccc(F)cc1F [compound 58, 1-{[1-(2,4-difluorophenyl)-5-methyl-2-phenylpyrrol-3-yl]methyl}-4-(2-pyridyl) piperazine] | 8 to 16 (≈ 18 to 36 µM)

Same assay, conditions: Table I; agar dilution

Row | Structure (SMILES) | MIC (μg/ml) against Clinical isolates Resistant [µg/mL]
12 | Cc1c(CN2CCN(Cc3ccccc3)CC2)cc(-c2ccccc2)n1NC(=O)c1ccncc1 [compound 15, N-(2-methyl-5-phenyl-3-{[4-benzylpiperazinyl]methyl}pyrrolyl)-4-pyridylcarboxamide] | 4.0 to 8.0
13 | Cc1c(CN2CCN(C)CC2)cc(-c2ccccc2)n1NC(=O)c1ccncc1 [compound 16, N-{2-methyl-3-[(4-methylpiperazinyl)methyl]-5-phenylpyrrolyl}-4-pyridylcarboxamide] | 4.0 to 16.0
14 | Cc1c(CN2CCN(Cc3ccc4c(c3)OCO4)CC2)cc(-c2ccccc2)n1NC(=O)c1ccncc1 [compound 17, N-(3-{[4-(2H-benzo[d]1,3-dioxolan-5-ylmethyl)piperazinyl]methyl}-2-methyl-5-phenylpyrrolyl)-4-pyridylcarboxamide] | 4.0 to 8.0
15 | Cc1c(CN2CCCC2)cc(-c2ccccc2)n1NC(=O)c1ccncc1 [compound 19, N-[2-methyl-5-phenyl-3-(pyrrolidinylmethyl)pyrrolyl]-4-pyridylcarboxamide] | >16.0
16 | Cc1c(CN2CCSCC2)cc(-c2ccccc2)n1NC(=O)c1ccncc1 [compound 21, N-[2-methyl-5-phenyl-3-(1,4-thiazaperhydroin-4-ylmethyl)pyrrolyl]-4-pyridyl carboxamide] | 1.0 to 4.0
17 | Cc1c(CN2CCN(c3ccc(F)cc3)CC2)cc(-c2ccccc2)n1NC(=O)c1cnccn1 [compound 25, N-(3-{[4-(4-fluorophenyl)piperazinyl]methyl}-2-methyl-5-phenylpyrrolyl)pyrazin-2-ylcarboxamide] | 4.0 (≈ 8.5 µM)
18 | COc1ccccc1N1CCN(Cc2cc(-c3ccccc3)n(NC(=O)c3cnccn3)c2C)CC1 [compound 26, N-(3-{[4-(2-methoxyphenyl)piperazinyl]methyl}-2-methyl-5-phenylpyrrolyl) pyrazin-2-ylcarboxamide] | 4.0 to 16.0
19 | Cc1c(CN2CCN(c3cccc(C(F)(F)F)c3)CC2)cc(-c2ccccc2)n1NC(=O)c1cnccn1 [compound 27, N-(3-{[4-(3-trifluoromethylphenyl)piperazinyl]methyl}-2-methyl-5-phenylpyrrolyl)pyrazin-2-ylcarboxamide] | 8.0 (≈ 15.4 µM)
20 | Cc1c(CN2CCN(c3ccccn3)CC2)cc(-c2ccccc2)n1NC(=O)c1cnccn1 [compound 28, N-(3-{[4-(2-pyridyl)piperazinyl]methyl}-2-methyl-5-phenylpyrrolyl)pyrazin-2-ylcarboxamide] | 4.0 to 16.0
21 | Cc1c(CN2CCN(Cc3ccc4c(c3)OCO4)CC2)cc(-c2ccccc2)n1NC(=O)c1cnccn1 [compound 29, N-(3-{[4-(2H-benzo[d]1,3-dioxolen-5-ylmethyl)piperazinyl]methyl}-2-methyl-5-phenylpyrrolyl)pyrazin-2-ylcarboxamide] | >16.0
22 | Cc1c(CN2CCN(C(c3ccccc3)c3ccccc3)CC2)cc(-c2ccccc2)n1NC(=O)c1cnccn1 [compound 30, N-(3-{[4-(diphenylmethyl)piperazinyl]methyl}-2-methyl-5-phenylpyrrolyl)-pyrazin-2-ylcarboxamide] | 4.0 to 16.0
23 | COc1ccccc1N1CCN(Cc2cc(C)n(NC(=O)c3cnccn3)c2-c2ccccc2)CC1 [compound 32, N-(3-{[4-(2-methoxyphenyl)piperazinyl]methyl}-5-methyl-2-phenylpyrrolyl) pyrazin-2-ylcarboxamide] | >16.0
24 | Cc1cc(CN2CCN(c3cccc(C(F)(F)F)c3)CC2)c(-c2ccccc2)n1NC(=O)c1cnccn1 [compound 33, N-(3-{[4-(3-trifluoromethylphenyl)piperazinyl]methyl}-5-methyl-2-phenylpyrrolyl)pyrazin-2-ylcarboxamide] | 4.0 to 8.0
25 | Cc1cc(CN2CCN(c3ccccn3)CC2)c(-c2ccccc2)n1NC(=O)c1cnccn1 [compound 34, N-(3-{[4-(2-pyridyl)piperazinyl]methyl}-5-methyl-2-phenylpyrrolyl)pyrazin-2-ylcarboxamide] | >16.0
26 | Cc1cc(CN2CCN(Cc3ccc4c(c3)OCO4)CC2)c(-c2ccccc2)n1NC(=O)c1cnccn1 [compound 35, N-(3-{[4-(2H-benzo[3,4-d]1,3-dioxolan-5-ylmethyl)piperazinyl]methyl}-5-methyl-2-phenylpyrrolyl)pyrazin-2-ylcarboxamide] | >16.0
27 | Cc1cc(CN2CCN(C(c3ccccc3)c3ccccc3)CC2)c(-c2ccccc2)n1NC(=O)c1cnccn1 [compound 36, N-(3-{[4-(diphenylmethyl)piperazinyl]methyl}-5-methyl-2-phenylpyrrolyl) pyrazin-2-ylcarboxamide] | 1.0 to 4.0
28 | COc1ccccc1N1CCN(Cc2cc(-c3ccc(Cl)cc3)n(NC(=O)c3cnccn3)c2C)CC1 [compound 38, N-(5-(4-chlorophenyl)-3-{[4-(2-methoxyphenyl)piperazinyl]methyl}-2-methylpyrrolyl)pyrazin-2-ylcarboxamide] | >16.0
29 | Cc1cc(CN2CCN(c3ccc(F)cc3)CC2)c(-c2ccc(Cl)cc2)n1NC(=O)c1cnccn1 [compound 41, N-(2-(4-chlorophenyl)-3-{[4-(4-fluorophenyl)piperazinyl]methyl}-5-methylpyrrolyl)pyrazin-2-ylcarboxamide] | >16.0
30 | Cc1cc(CN2CCN(c3cccc(C(F)(F)F)c3)CC2)c(-c2ccc(Cl)cc2)n1NC(=O)c1cnccn1 [compound 43, N-(2-(4-chlorophenyl)-3-{[4-(3-trifluoromethylphenyl)piperazinyl]methyl}-5-methylpyrrolyl)pyrazin-2-ylcarboxamide] | >16.0
31 | Cc1c(CN2CCN(C(c3ccccc3)c3ccccc3)CC2)cc(-c2ccc(Cl)cc2)n1-c1ccc(F)cc1F [compound 48, 1-{[1-(2,4-difluorophenyl)-5-(4-chlorophenyl)-2-methylpyrrol-3-yl]methyl}-4-(4-diphenylmethyl)piperazine] | >16.0
32 | Cc1c(CN2CCN(Cc3ccc4c(c3)OCO4)CC2)cc(-c2ccc(Cl)cc2)n1-c1ccc(F)cc1F [compound 50, 5-[(4-{[1-(2,4-difluorophenyl)-5-(4-chlorophenyl)-2-methylpyrrol-3-yl]-methyl}-piperazinyl)methyl]-2H-benzo[d]1,3-dioxolane] | 4.0 to 16.0
33 | COc1ccccc1N1CCN(Cc2cc(-c3ccc(Cl)cc3)n(-c3cccc4ccccc34)c2C)CC1 [compound 59, 1-{[5-(4-chlorophenyl)-2-methyl-1-naphthylpyrrol-3-yl]methyl}-4-(2-methoxyphenyl)piperazine] | >16.0
